Test system: 991263-137-R1-J2-PDC complex spheroid viability
Test: Anticancer human tumor 991263-137-R1-J2-PDC patient-derived colon adenocarcinoma cell line growth inhibition [POLQ]
Conditions: for IC50: curve of first compound; for viability, T/C: stronger effect = lower value
How it was run: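 Patient-derived tumour cells were co-cultured with HUVEC and mesenchymal stem cells as multicellular spheroids at 37 °C. They were treated with POLQ inhibitors (novobiocin, ART-558, RP6685) alone or combined with other agents. Top concentrations were at or near clinical Cmax (otherwise 10 microM; SN-38 at 1 microM), decreasing in half-log steps.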
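Also: spheroids exposed to compounds for 7 days before readout.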
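For viability, T/C in this document: 100% = DMSO vehicle control viability.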

Structure (SMILES): CCc1cc2c(N3CCc4c(cc(Cn5ccnc5)cc4-c4cn(C)nc4C(F)(F)F)C3=O)cc(C)nc2c(OC)n1 + COC1C(OC(N)=O)C(O)C(Oc2ccc3c(O)c(NC(=O)c4ccc(O)c(CC=C(C)C)c4)c(=O)oc3c2C)OC1(C)C
- IC50 (second compound 0.0316 µM): > 10 µM
- IC50 (second compound 0.1 µM): > 10 µM
- IC50 (second compound 0.316 µM): > 10 µM
- IC50 (second compound 1 µM): > 10 µM
- IC50 (second compound 3.16 µM): > 10 µM
- IC50 (second compound 10 µM): > 10 µM
- viability, T/C (second compound 0.0316 µM, first compound 0.0316 µM): 108%
- viability, T/C (second compound 0.0316 µM, first compound 0.1 µM): 89.5%
- viability, T/C (second compound 0.0316 µM, first compound 0.316 µM): 103%
- viability, T/C (second compound 0.0316 µM, first compound 1 µM): 91.4%
- viability, T/C (second compound 0.0316 µM, first compound 3.16 µM): 100%
- viability, T/C (second compound 0.0316 µM, first compound 10 µM): 79.9%
- viability, T/C (second compound 0.1 µM, first compound 0.0316 µM): 109%
- viability, T/C (second compound 0.1 µM, first compound 0.1 µM): 117%
- viability, T/C (second compound 0.1 µM, first compound 0.316 µM): 102%
- viability, T/C (second compound 0.1 µM, first compound 1 µM): 89.1%
- viability, T/C (second compound 0.1 µM, first compound 3.16 µM): 106%
- viability, T/C (second compound 0.1 µM, first compound 10 µM): 101%
- viability, T/C (second compound 0.316 µM, first compound 0.0316 µM): 99.6%
- viability, T/C (second compound 0.316 µM, first compound 0.1 µM): 113%
- viability, T/C (second compound 0.316 µM, first compound 0.316 µM): 95.9%
- viability, T/C (second compound 0.316 µM, first compound 1 µM): 92.2%
- viability, T/C (second compound 0.316 µM, first compound 3.16 µM): 100%
- viability, T/C (second compound 0.316 µM, first compound 10 µM): 88.9%
- viability, T/C (second compound 1 µM, first compound 0.0316 µM): 97.4%
- viability, T/C (second compound 1 µM, first compound 0.1 µM): 93.8%
- viability, T/C (second compound 1 µM, first compound 0.316 µM): 81.1%
- viability, T/C (second compound 1 µM, first compound 1 µM): 95.8%
- viability, T/C (second compound 1 µM, first compound 3.16 µM): 106%
- viability, T/C (second compound 1 µM, first compound 10 µM): 82.2%
- viability, T/C (second compound 3.16 µM, first compound 0.0316 µM): 105%
- viability, T/C (second compound 3.16 µM, first compound 0.1 µM): 113%
- viability, T/C (second compound 3.16 µM, first compound 0.316 µM): 101%
- viability, T/C (second compound 3.16 µM, first compound 1 µM): 102%
- viability, T/C (second compound 3.16 µM, first compound 3.16 µM): 102%
- viability, T/C (second compound 3.16 µM, first compound 10 µM): 86.1%
- viability, T/C (second compound 10 µM, first compound 0.0316 µM): 95.4%
- viability, T/C (second compound 10 µM, first compound 0.1 µM): 104%
- viability, T/C (second compound 10 µM, first compound 0.316 µM): 89.8%
- viability, T/C (second compound 10 µM, first compound 1 µM): 105%
- viability, T/C (second compound 10 µM, first compound 3.16 µM): 86.4%
- viability, T/C (second compound 10 µM, first compound 10 µM): 89.4%
